# Experimental data taken from publication PMC10722324 (Heliyon, 2023).
# Legend:
# [1] = system: differentiated SH-SY5Y cells; assay: Toxicity screening on differentiated SH-SY5Y cells; format: cell-based, human; conditions: MTT, mean ± SD (n = 5)
# [2] = biological target: BuChE (Homo sapiens, UniProt P06276); assay: biochemical
# [3] = biological target: Aβ1–42 (Homo sapiens, UniProt P05067); assay: biochemical; conditions: Aβ aggregation (IC50), Aβ1-42, ThT, 37 °C 48 h, compounds 0–200 μM
# Chain of Aβ1–42 (P05067 672-713): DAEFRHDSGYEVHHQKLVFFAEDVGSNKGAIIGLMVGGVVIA
# Chain of BuChE (P06276 29-602): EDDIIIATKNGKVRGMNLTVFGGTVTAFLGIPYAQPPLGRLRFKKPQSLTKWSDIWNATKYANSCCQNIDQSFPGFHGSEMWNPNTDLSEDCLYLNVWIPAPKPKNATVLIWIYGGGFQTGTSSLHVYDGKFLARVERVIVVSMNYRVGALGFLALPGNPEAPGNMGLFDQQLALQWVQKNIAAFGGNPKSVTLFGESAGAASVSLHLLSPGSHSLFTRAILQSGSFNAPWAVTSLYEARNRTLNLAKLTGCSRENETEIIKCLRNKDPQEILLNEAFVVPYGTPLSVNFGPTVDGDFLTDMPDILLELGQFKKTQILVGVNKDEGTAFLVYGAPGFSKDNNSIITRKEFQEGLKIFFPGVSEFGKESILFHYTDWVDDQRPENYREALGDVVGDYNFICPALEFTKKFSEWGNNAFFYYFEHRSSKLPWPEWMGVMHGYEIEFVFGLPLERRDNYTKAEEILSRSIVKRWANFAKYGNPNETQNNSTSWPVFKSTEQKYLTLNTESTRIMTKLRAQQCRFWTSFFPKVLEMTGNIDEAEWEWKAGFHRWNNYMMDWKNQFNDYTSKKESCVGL
Structure (SMILES),Cell viability ([1]; 0.1 μM),Cell viability ([1]; 1 μM),Cell viability ([1]; 10 μM),Cell viability ([1]; 100 μM),IC50 [2],IC50 [3]
"COc1c2ccoc2cc2oc(-c3ccccc3)cc(=O)c12 [CY2, pinnatin]",96.7 ± 3.1 % control,99.3 ± 4.7 % control,96.1 ± 4.3 % control,68.5 ± 2.2 % control,82 ± 1.3 µM,195 ± 3.2 µM
"COc1c(C(=O)/C=C(\O)c2ccccc2)ccc2occc12 [CY3, pongamol]",103.3 ± 1.4 % control,103.6 ± 1.1 % control,104.3 ± 3.8 % control,103.1 ± 4.0 % control,102 ± 1.27 µM,> 200 µM
"O=c1cc(-c2ccccc2)oc2c1ccc1occc12 [CY14, lanceolatin B]",102.4 ± 1.3 % control,100.1 ± 2.6 % control,97.4 ± 3.2 % control,72.4 ± 3.4 % control,,106 µM
"COc1cc(/C=C/C(=O)CC(=O)/C=C/c2ccc(O)c(OC)c2)ccc1O [Curcumin, reference compound]",104.1 ± 3.2 % control,100.4 ± 4.6 % control,100.5 ± 7.7 % control,79.1 ± 3.6 % control,,
